PubChem BioAssay AID328 (DTP/NCI, 2004)
Where “and” joins values, the source holds several entries; their conditions need not be identical. Equal values may be shown once. Inconclusive results and toxic doses are left out.

Test system: BDF1 mice, P388 leukemia ip, median survival T/C
Assay: NCI In Vivo Anticancer Drug Screen. Data for tumor model P388 Leukemia (intraperitoneal) in B6D2F1 (BDF1) mice
Conditions: endpoint: median survival time, higher = longer survival
Method in brief: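 Transplantable tumour in mice; compound vs vehicle dosing; survival scored; ratio of treated to control reported.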

[1] = dose: 50.0 mg/kg/injection, schedule: Q01DX009 (ip), vehicle: saline with Tween-80
[2] = dose: 100.0 mg/kg/injection, schedule: Q01DX009 (ip), vehicle: saline with Tween-80
[3] = dose: 200.0 mg/kg/injection, schedule: Q01DX009 (ip), vehicle: saline with Tween-80
[4] = dose: 100.0 mg/kg/injection, schedule: Q04DX003 (ip), vehicle: saline with Tween-80
[5] = dose: 200.0 mg/kg/injection, schedule: Q04DX003 (ip), vehicle: saline with Tween-80
[6] = dose: 400.0 mg/kg/injection, schedule: Q04DX003 (ip), vehicle: saline with Tween-80
[7] = dose: 12.5 mg/kg/injection, schedule: Q01DX009 (ip), vehicle: saline with Tween-80
[8] = dose: 25.0 mg/kg/injection, schedule: Q01DX009 (ip), vehicle: saline with Tween-80
[9] = dose: 6.25 mg/kg/injection, schedule: Q01DX009 (ip), vehicle: saline
[10] = dose: 12.5 mg/kg/injection, schedule: Q01DX009 (ip), vehicle: saline
[11] = dose: 25.0 mg/kg/injection, schedule: Q01DX009 (ip), vehicle: saline

## c1ccc(CNc2ncncc2-c2ccccc2)cc1
[1]
  T/C: 98 % of control
[2]
  T/C: 105 % of control
[3]
  T/C: 99 % of control

## CC(=O)Nc1cscc1NC(C)=O
[1]
  T/C: 110 % of control and 123 % of control
[2]
  T/C: 119 % of control and 123 % of control
[3]
  T/C: 123 % of control

## NOCc1c(F)c(F)c(F)c(F)c1F
dose: 50.0 mg/kg/injection, schedule: Q01DX001 (ip), vehicle: saline
  T/C: 113 % of control
dose: 100.0 mg/kg/injection, schedule: Q01DX001 (ip), vehicle: saline
  T/C: 104 % of control
dose: 200.0 mg/kg/injection, schedule: Q01DX001 (ip), vehicle: saline
  T/C: 95 % of control

## O=[N+]([O-])c1cc(Br)c(N2CCCC2)cc1N1CCCC1
dose: 100.0 mg/kg/injection, schedule: Q01DX009 (ip), vehicle: Klucel (hydroxypropylcellulose) (HPC)
  T/C: 104 % of control
dose: 100.0 mg/kg/injection, schedule: Q04DX003 (ip), vehicle: Klucel (hydroxypropylcellulose) (HPC)
  T/C: 100 % of control
dose: 200.0 mg/kg/injection, schedule: Q01DX009 (ip), vehicle: Klucel (hydroxypropylcellulose) (HPC)
  T/C: 100 % of control
dose: 200.0 mg/kg/injection, schedule: Q04DX003 (ip), vehicle: Klucel (hydroxypropylcellulose) (HPC)
  T/C: 95 % of control
dose: 400.0 mg/kg/injection, schedule: Q01DX009 (ip), vehicle: Klucel (hydroxypropylcellulose) (HPC)
  T/C: 100 % of control
dose: 400.0 mg/kg/injection, schedule: Q04DX003 (ip), vehicle: Klucel (hydroxypropylcellulose) (HPC)
  T/C: 110 % of control

## COc1ccc(OC)c(Br)c1
[2]
  T/C: 110 % of control
[4]
  T/C: 100 % of control
dose: 178.0 mg/kg/injection, schedule: Q01DX009 (ip), vehicle: saline with Tween-80
  T/C: 118 % of control
[3]
  T/C: 120 % of control
[5]
  T/C: 100 % of control
dose: 266.0 mg/kg/injection, schedule: Q01DX009 (ip), vehicle: saline with Tween-80
  T/C: 118 % of control
dose: 400.0 mg/kg/injection, schedule: Q01DX009 (ip), vehicle: saline with Tween-80
  T/C: 109 % of control
[6]
  T/C: 113 % of control

## CN1CCN(Cc2nc3cccc4c3c([n+]2[O-])-c2ccccc2-4)CC1
dose: 40.0 mg/kg/injection, schedule: Q06HX032 (ip), vehicle: saline with Tween-80
  T/C: 100 % of control
dose: 50.0 mg/kg/injection, schedule: Q03HX008 (ip), vehicle: saline with Tween-80
  T/C: 107 % of control
dose: 50.0 mg/kg/injection, schedule: Q03HX024 (ip), vehicle: saline with Tween-80
  T/C: 109 % of control
dose: 80.0 mg/kg/injection, schedule: Q01DX009 (ip), vehicle: saline with Tween-80
  T/C: 118 % of control
dose: 80.0 mg/kg/injection, schedule: Q03HX008 (ip), vehicle: saline with Tween-80
  T/C: 120 % of control
dose: 100.0 mg/kg/injection, schedule: Q01DX009 (ip), vehicle: saline
  T/C: 158 % of control
dose: 100.0 mg/kg/injection, schedule: Q01DX009 (oral), vehicle: saline with Tween-80
  T/C: 107 % of control
dose: 100.0 mg/kg/injection, schedule: Q01DX Z (ip), vehicle: saline
  T/C: 159 % of control
dose: 100.0 mg/kg/injection, schedule: Q03HX008 (oral), vehicle: saline with Tween-80
  T/C: 105 % of control
dose: 100.0 mg/kg/injection, schedule: Q03HX024 (ip), vehicle: saline with Tween-80
  T/C: 162 % of control
dose: 100.0 mg/kg/injection, schedule: Q08HX009 (oral), vehicle: saline with Tween-80
  T/C: 100 % of control
dose: 100.0 mg/kg/injection, schedule: Q08HX027 (oral), vehicle: saline with Tween-80
  T/C: 120 % of control
dose: 150.0 mg/kg/injection, schedule: Q01DX009 (ip), vehicle: saline
  T/C: 150 % of control
dose: 150.0 mg/kg/injection, schedule: Q01DX009 (oral), vehicle: saline with Tween-80
  T/C: 112 % of control
dose: 150.0 mg/kg/injection, schedule: Q04DX003 (oral), vehicle: saline with Tween-80
  T/C: 99 % of control
dose: 150.0 mg/kg/injection, schedule: Q08HX009 (oral), vehicle: saline with Tween-80
  T/C: 112 % of control
dose: 175.0 mg/kg/injection, schedule: Q08HX027 (oral), vehicle: saline with Tween-80
  T/C: 161 % of control
dose: 200.0 mg/kg/injection, schedule: Q01DX009 (oral), vehicle: saline with Tween-80
  T/C: 110 % of control
dose: 200.0 mg/kg/injection, schedule: Q03HX024 (oral), vehicle: saline with Tween-80
  T/C: 152 % of control
dose: 200.0 mg/kg/injection, schedule: Q04DX003 (oral), vehicle: saline with Tween-80
  T/C: 110 % of control
dose: 200.0 mg/kg/injection, schedule: Q08HX009 (oral), vehicle: saline with Tween-80
  T/C: 103 % of control
dose: 200.0 mg/kg/injection, schedule: Q08HX027 (oral), vehicle: saline with Tween-80
  T/C: 90 % of control
dose: 250.0 mg/kg/injection, schedule: Q01DX009 (oral), vehicle: saline with Tween-80
  T/C: 117 % of control
dose: 250.0 mg/kg/injection, schedule: Q04DX003 (oral), vehicle: saline with Tween-80
  T/C: 100 % of control
dose: 250.0 mg/kg/injection, schedule: Q08HX009 (oral), vehicle: saline with Tween-80
  T/C: 116 % of control
dose: 300.0 mg/kg/injection, schedule: Q04DX003 (oral), vehicle: saline with Tween-80
  T/C: 105 % of control

## Cc1c(C=[N+]2CCCCC2)c2ccccc2n1C
dose: 6.25 mg/kg/injection, schedule: Q01DX009 (ip), vehicle: saline with Tween-80
  T/C: 96 % of control
[7]
  T/C: 105 % of control
[8]
  T/C: 93 % of control
[1]
  T/C: 99 % of control

## O=C(Nc1ccccc1)C1(Br)CC2(C1)CC(Br)(C(=O)Nc1ccccc1)C2 (configuration not stated)
dose: 100.0 mg/kg/injection, schedule: Q01DX001 (ip), vehicle: saline with Tween-80
  T/C: 92 % of control
dose: 200.0 mg/kg/injection, schedule: Q01DX001 (ip), vehicle: saline with Tween-80
  T/C: 99 % of control

## c1c(NC2=NCCO2)cc2c3c1CCCN3CCC2
[7]
  T/C: 104 % of control
[8]
  T/C: 118 % of control
[1]
  T/C: 113 % of control

## O=C(O)c1cc2c3c(c1)CCCN3CCC2
[4]
  T/C: 90 % of control
[5]
  T/C: 100 % of control
[6]
  T/C: 90 % of control

## O=C1c2ccccc2C(=O)N1C/C(=N/O)c1ccc(C(F)(F)F)cc1
dose: 50.0 mg/kg/injection, schedule: Q01DX001 (ip), vehicle: Klucel (hydroxypropylcellulose) (HPC)
  T/C: 96 % of control
dose: 100.0 mg/kg/injection, schedule: Q01DX001 (ip), vehicle: Klucel (hydroxypropylcellulose) (HPC)
  T/C: 96 % of control
dose: 200.0 mg/kg/injection, schedule: Q01DX001 (ip), vehicle: Klucel (hydroxypropylcellulose) (HPC)
  T/C: 96 % of control

## C[N+]1=C2CCCCCC2=C(N)CC1
[9]
  T/C: 100 % of control
[10]
  T/C: 100 % of control
dose: 12.5 mg/kg/injection, schedule: Q04DX003 (ip), vehicle: saline sonified
  T/C: 91 % of control
[11]
  T/C: 100 % of control

## CC1=C/C(=C/c2ccccc2)CC(C)(C)C1 (tested in a mixture with another compound)
dose: 25.0 mg/kg/injection, schedule: Q01DX009 (ip), vehicle: saline sonified
  T/C: 104 % of control
dose: 50.0 mg/kg/injection, schedule: Q01DX009 (ip), vehicle: saline sonified
  T/C: 100 % of control
dose: 100.0 mg/kg/injection, schedule: Q01DX009 (ip), vehicle: saline sonified
  T/C: 100 % of control

## C[NH-].C[NH-].[Br][Pt+2][Br]
dose: 6.0 mg/kg/injection, schedule: Q04DX003 (ip), vehicle: other
  T/C: 170 % of control
dose: 12.0 mg/kg/injection, schedule: Q04DX003 (ip), vehicle: other
  T/C: 208 % of control
dose: 12.5 mg/kg/injection, schedule: Q04DX003 (ip), vehicle: other
  T/C: 212 % of control

## COc1ccc(C2C=CC(c3ccccc3)C(c3ccccc3)C2[N+](=O)[O-])cc1OC (configuration not stated)
[4]
  T/C: 100 % of control
[5]
  T/C: 100 % of control
[6]
  T/C: 90 % of control

## CCCCOC1CC2c3ccccc3C1c1cccc[n+]12 (configuration not stated)
[9]
  T/C: 95 % of control
[10]
  T/C: 109 % of control
dose: 18.75 mg/kg/injection, schedule: Q04DX003 (ip), vehicle: saline
  T/C: 100 % of control
[11]
  T/C: 122 % of control
dose: 37.5 mg/kg/injection, schedule: Q04DX003 (ip), vehicle: saline
  T/C: 95 % of control

## O=c1c2cccc3cccc(c32)c2nc3ccccc3n12
dose: 4.0 mg/kg/injection, schedule: Q01DX009 (ip), vehicle: saline with Tween-80
  T/C: 100 % of control
dose: 6.0 mg/kg/injection, schedule: Q01DX009 (ip), vehicle: saline with Tween-80
  T/C: 108 % of control
dose: 6.25 mg/kg/injection, schedule: Q04DX003 (ip), vehicle: saline with Tween-80
  T/C: 87 % of control
dose: 12.5 mg/kg/injection, schedule: Q04DX003 (ip), vehicle: saline with Tween-80
  T/C: 95 % of control
dose: 25.0 mg/kg/injection, schedule: Q04DX003 (ip), vehicle: saline with Tween-80
  T/C: 112 % of control
